Measured values taken from patent US20250195521A1 (Revolution Medicines, Inc., priority 2020, published 2025).

What was measured:
[1] = test system: K-Ras G12C (NCI-H358 cells); assay: Potency assay: pERK in NCI-H358 cells; assay type: cell-based, human; conditions: Homo sapiens; NCI-H358 cells, 4 hours; read-out: pERK EC50 (H358 KRAS G12C)
In short: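 Cells plated the day before were exposed for 4 h at 37° C, 5% CO2 to a 10-point, 3-fold DMSO dilution series (10 mM top stock), in duplicate. Phospho-ERK was read by AlphaLISA SureFire Ultra or by In-Cell Western with DRAQ5 DNA stain, and IC50 came from a 4-parameter sigmoidal fit.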

[2] = test system: NCI-H358 cells (K-Ras G12C); assay: CellTiter-Glo cell viability, NCI-H358; assay type: cell-based, human; conditions: Homo sapiens, NCI-H358, 120 h, K-Ras G12C, 5-day treatment; read-out: H358 Cell Viability IC50
In short: (§1)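 Endpoint: CellTiter-Glo luminescence on day 5, following ~30 min at room temperature. Data as (sample/mean DMSO)×100, four-parameter logistic fit.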

[3] = biological target: KRAS G13C (Homo sapiens (Human), UniProt P01116+P62937, G13C); assay: Ras-Raf disruption/FRET/MOA assay (BRAF RBD, Cyclophilin A); assay type: biochemical; conditions: read-out: KRAS G13C FRET IC50
In short: (§2)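 TR-FRET readout: anti-His Eu-W1024 (10 nM) and anti-GST allophycocyanin (50 nM) added after 3 h, 25° C compound incubation, then 1.5 h more. Decrease in FRET ratio versus DMSO wells marks Ras:RAF disruption; IC50 reported.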

[4] = biological target: KRAS G12C (Homo sapiens (Human), UniProt P01116+P62937, G12C); assay: as above; assay type: biochemical; conditions: read-out: KRAS G12C FRET IC50
In short: as §2

[5] = biological target: KRAS G12S (Homo sapiens (Human), UniProt P01116+P62937, G12S); assay: as above; assay type: biochemical; conditions: read-out: KRAS G12S FRET IC50
In short: as §2

[6] = biological target: KRAS G13D (Homo sapiens (Human), UniProt P01116+P62937, G13D); assay: as above; assay type: biochemical; conditions: read-out: KRAS G13D FRET data IC50
In short: as §2

[7] = biological target: KRAS G12V (Homo sapiens (Human), UniProt P01116+P62937, G12V); assay: as above; assay type: biochemical; conditions: read-out: KRAS G12V FRET IC50
In short: as §2

[8] = biological target: NRAS G12C (Homo sapiens (Human), UniProt P01111+P62937, G12C); assay: as above; assay type: biochemical; conditions: read-out: NRAS G12C FRET data IC50
In short: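 TR-FRET read after 1.5 h with 10 nM anti-His Eu-W1024 and 50 nM anti-GST APC, following 3 h at 25 °C of GMPPNP-loaded His6-Ras (12.5 nM), GST-BRAF RBD (50 nM) and Cyclophilin A (25 μM) with compound from 30 μM final, 10 points, 3-fold. IC50 reported; pH 7.3 HEPES, 100 mM NaCl.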

[9] = biological target: KRAS G12D (Homo sapiens (Human), UniProt P01116+P62937, G12D); assay: as above; assay type: biochemical; conditions: read-out: KRAS G12D FRET IC50
In short: as §2

[10] = biological target: KRAS WT (Homo sapiens (Human), UniProt P01116+P62937); assay: as above; assay type: biochemical; conditions: read-out: KRAS WT FRET data IC50
In short: as §2

[11] = test system: NCI-H358 (K-Ras G12C); assay: CellTiter-Glo cell viability assay, NCI-H358; assay type: cell-based, human; conditions: Homo sapiens, NCI-H358, 120 h, 5-day treatment; read-out: H358 Cell Viability assay data (K-Ras G12C, IC50)
In short: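 After direct compound addition, plates were incubated to day 5 and equilibrated at room temperature for about 30 minutes before CellTiter-Glo reading. Values derive from luminescence relative to the DMSO mean, fitted with a four-parameter logistic model.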

[12] = test system: Capan-1 cells (K-Ras G12V); assay: CellTiter-Glo cell viability, Capan-1; assay type: cell-based, human; conditions: Homo sapiens, CAPAN-1, 120 h, K-Ras G12V, 5-day treatment; read-out: Capan-1 Cell Viability IC50
In short: as §1

Chain of KRAS G12S (P01116 other isoform, or with tags, fused parts or gaps G12S): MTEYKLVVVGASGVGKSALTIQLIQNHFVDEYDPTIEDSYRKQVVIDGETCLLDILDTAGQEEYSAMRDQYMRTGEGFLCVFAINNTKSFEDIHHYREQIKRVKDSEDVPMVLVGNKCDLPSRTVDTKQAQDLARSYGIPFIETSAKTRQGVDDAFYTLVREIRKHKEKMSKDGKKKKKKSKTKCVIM
Chain of KRAS G12S (P62937 whole entry): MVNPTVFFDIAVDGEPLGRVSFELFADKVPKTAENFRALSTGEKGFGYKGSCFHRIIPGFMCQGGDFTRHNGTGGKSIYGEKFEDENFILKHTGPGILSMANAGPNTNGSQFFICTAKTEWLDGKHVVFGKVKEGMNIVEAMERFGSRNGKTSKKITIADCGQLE
Chain of KRAS G12V (P01116 other isoform, or with tags, fused parts or gaps G12V): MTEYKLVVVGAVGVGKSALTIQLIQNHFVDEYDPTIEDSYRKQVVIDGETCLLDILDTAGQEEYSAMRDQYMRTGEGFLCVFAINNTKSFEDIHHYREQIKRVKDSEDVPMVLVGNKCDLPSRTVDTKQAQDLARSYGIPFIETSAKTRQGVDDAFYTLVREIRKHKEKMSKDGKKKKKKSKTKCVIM
Chain of KRAS G12V (P62937 whole entry): as the sequence (P62937 whole entry) above
Chain of NRAS G12C (P01111 whole entry G12C): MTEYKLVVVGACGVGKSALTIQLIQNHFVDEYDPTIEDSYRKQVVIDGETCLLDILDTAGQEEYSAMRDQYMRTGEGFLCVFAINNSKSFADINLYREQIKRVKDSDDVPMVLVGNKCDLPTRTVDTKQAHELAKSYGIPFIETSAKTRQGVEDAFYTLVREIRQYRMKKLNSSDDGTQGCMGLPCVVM
Chain of NRAS G12C (P62937 whole entry): as the sequence (P62937 whole entry) above
Chain of KRAS G12D (P01116 other isoform, or with tags, fused parts or gaps G12D): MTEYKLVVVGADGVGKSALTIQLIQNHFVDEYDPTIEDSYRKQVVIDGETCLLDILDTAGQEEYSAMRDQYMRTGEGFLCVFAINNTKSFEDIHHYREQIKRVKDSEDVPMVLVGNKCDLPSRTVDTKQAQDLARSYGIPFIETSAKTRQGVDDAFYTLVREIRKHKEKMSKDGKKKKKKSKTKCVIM
Chain of KRAS G12D (P62937 whole entry): as the sequence (P62937 whole entry) above
Chain of KRAS G12C (P01116-2 other isoform, or with tags, fused parts or gaps G12C): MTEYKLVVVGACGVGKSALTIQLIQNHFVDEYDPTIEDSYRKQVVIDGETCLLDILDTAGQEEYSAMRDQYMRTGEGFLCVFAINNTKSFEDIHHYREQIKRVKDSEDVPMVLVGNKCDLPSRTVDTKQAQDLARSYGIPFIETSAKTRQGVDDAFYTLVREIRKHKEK
Chain of KRAS G12C (P62937 whole entry): as the sequence (P62937 whole entry) above
Chain of KRAS G13D (P01116 other isoform, or with tags, fused parts or gaps G13D): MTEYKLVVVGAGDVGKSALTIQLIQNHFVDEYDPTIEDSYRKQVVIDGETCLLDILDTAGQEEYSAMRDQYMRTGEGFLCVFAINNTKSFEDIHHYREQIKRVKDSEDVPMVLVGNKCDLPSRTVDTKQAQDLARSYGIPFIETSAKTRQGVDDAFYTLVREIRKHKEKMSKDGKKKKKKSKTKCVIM
Chain of KRAS G13D (P62937 whole entry): as the sequence (P62937 whole entry) above
Chain of KRAS WT (P01116 other isoform, or with tags, fused parts or gaps): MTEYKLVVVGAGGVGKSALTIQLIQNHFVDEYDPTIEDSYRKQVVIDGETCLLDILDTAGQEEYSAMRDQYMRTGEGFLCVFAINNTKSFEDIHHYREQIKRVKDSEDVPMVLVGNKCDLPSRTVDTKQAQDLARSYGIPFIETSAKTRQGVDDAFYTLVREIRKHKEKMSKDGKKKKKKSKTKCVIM
Chain of KRAS WT (P62937 whole entry): as the sequence (P62937 whole entry) above
Chain of KRAS G13C (P01116 other isoform, or with tags, fused parts or gaps G13C): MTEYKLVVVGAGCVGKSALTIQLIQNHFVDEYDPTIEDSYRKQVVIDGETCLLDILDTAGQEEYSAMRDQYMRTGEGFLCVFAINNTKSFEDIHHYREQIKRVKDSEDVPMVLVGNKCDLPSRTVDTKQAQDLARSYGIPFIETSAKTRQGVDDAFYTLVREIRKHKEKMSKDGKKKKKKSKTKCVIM
Chain of KRAS G13C (P62937 whole entry): as the sequence (P62937 whole entry) above

Compound	EC50 [1]	IC50 [2]	IC50 [3]	IC50 [4]	IC50 [5]	IC50 [6]	IC50 [7]	IC50 [8]	IC50 [9]	IC50 [10]	IC50 [11]	IC50 [12]
CCn1c(-c2cnccc2COC)c2c3cc(ccc31)-c1cc(O)cc(c1)C[C@H](NC(=O)[C@H](C(C)C)N(C)C(=O)[C@H]1CCN(C(=O)CO)C1)C(=O)N1CCC[C@H](N1)C(=O)OCC(C)(C)C2 [Compound A20]	< 5000 nM	1000 to 10000 nM	100 to 1000 nM	10 to 100 nM	100 to 1000 nM	100 to 1000 nM	100 to 1000 nM	100 to 1000 nM	1000 to 10000 nM	100 to 1000 nM	10 to 100 nM	–
CCn1c(-c2cnccc2COC)c2c3cc(ccc31)-c1cc(O)cc(c1)C[C@H](NC(=O)[C@H](C(C)C)N(C)C(=O)[C@H]1CCN(C[C@@H](C)O)C1)C(=O)N1CCC[C@H](N1)C(=O)OCC(C)(C)C2 [Compound A31]	< 5000 nM	> 10000 nM	10 to 100 nM	100 to 1000 nM	100 to 1000 nM	100 to 1000 nM	1000 to 10000 nM	100 to 1000 nM	100 to 1000 nM	100 to 1000 nM	10 to 100 nM	–
CCn1c(-c2cnccc2COC)c2c3cc(ccc31)-c1cc(O)cc(c1)C[C@H](NC(=O)[C@H](C(C)C)N(C)C(=O)[C@H]1CCN(C3CCOCC3)C1)C(=O)N1CCC[C@H](N1)C(=O)OCC(C)(C)C2 [Compound A45]	< 5000 nM	1000 to 10000 nM	100 to 1000 nM	100 to 1000 nM	100 to 1000 nM	10 to 100 nM	> 10000 nM	1000 to 10000 nM	100 to 1000 nM	100 to 1000 nM	10 to 100 nM	–
CCn1c(-c2cnccc2COC)c2c3cc(ccc31)-c1cc(O)cc(c1)C[C@H](NC(=O)[C@H](C(C)C)N(C)C(=O)[C@H]1CCN(C[C@H](C)O)C1)C(=O)N1CCC[C@H](N1)C(=O)OCC(C)(C)C2 [Compound A47]	< 5000 nM	> 10000 nM	100 to 1000 nM	100 to 1000 nM	100 to 1000 nM	100 to 1000 nM	> 10000 nM	100 to 1000 nM	1000 to 10000 nM	100 to 1000 nM	10 to 100 nM	–
CCn1c(-c2cnccc2COC)c2c3cc(ccc31)-c1cc(O)cc(c1)C[C@H](NC(=O)[C@@H](NC(C)=O)C(C)C)C(=O)N1CCC[C@H](N1)C(=O)OCC(C)(C)C2 [Compound A58]	< 5000 nM	1000 to 10000 nM	1000 to 10000 nM	1000 to 10000 nM	1000 to 10000 nM	1000 to 10000 nM	1000 to 10000 nM	1000 to 10000 nM	> 10000 nM	1000 to 10000 nM	10 to 100 nM	–
CCn1c(-c2cnccc2COC)c2c3cc(ccc31)-c1cc(O)cc(c1)C[C@H](NC(=O)[C@H](C(C)C)N(C)C(=O)c1ncc[nH]1)C(=O)N1CCC[C@H](N1)C(=O)OCC(C)(C)C2 [Compound A64]	< 5000 nM	100 to 1000 nM	1000 to 10000 nM	100 to 1000 nM	100 to 1000 nM	100 to 1000 nM	100 to 1000 nM	100 to 1000 nM	1000 to 10000 nM	100 to 1000 nM	10 to 100 nM	–
CCn1c(-c2cnccc2COC)c2c3cc(ccc31)-c1cc(O)cc(c1)C[C@H](NC(=O)[C@H](C(C)C)N(C)C(=O)CNC(=N)N)C(=O)N1CCC[C@H](N1)C(=O)OCC(C)(C)C2 [Compound A68]	–	> 10000 nM	10 to 100 nM	10 to 100 nM	10 to 100 nM	100 to 1000 nM	100 to 1000 nM	100 to 1000 nM	100 to 1000 nM	100 to 1000 nM	100 to 1000 nM	–
CCn1c(-c2cnccc2COC)c2c3cc(ccc31)-c1cc(O)cc(c1)C[C@H](NC(=O)[C@H](C(C)C)N(C)C(=O)[C@@H](C)O)C(=O)N1CCC[C@H](N1)C(=O)OCC(C)(C)C2 [Compound A92]	–	1000 to 10000 nM	100 to 1000 nM	1000 to 10000 nM	1000 to 10000 nM	1000 to 10000 nM	1000 to 10000 nM	1000 to 10000 nM	1000 to 10000 nM	1000 to 10000 nM	100 to 1000 nM	> 10000 nM
CCn1c(-c2cccnc2[C@H](C)OC)c2c3cc(ccc31)-c1cc(O)cc(c1)C[C@H](NC(=O)[C@H](C(C)C)N(C)C(=O)[C@H]1CCN(C(=O)[C@@]3(C)CCCN3C)C1)C(=O)N1CCC[C@H](N1)C(=O)OCC(C)(C)C2 [Compound A379]	< 5000 nM	10 to 100 nM	10 to 100 nM	10 to 100 nM	10 to 100 nM	10 to 100 nM	10 to 100 nM	10 to 100 nM	10 to 100 nM	10 to 100 nM	–	100 to 1000 nM
CCn1c(-c2cccnc2[C@H](C)OC)c2c3cc(ccc31)-c1cc(O)cc(c1)C[C@H](NC(=O)[C@H](C(C)C)N(C)C(=O)C13CCC(CC1)O3)C(=O)N1CCC[C@H](N1)C(=O)OCC(C)(C)C2 [Compound A412]	< 5000 nM	100 to 1000 nM	100 to 1000 nM	10 to 100 nM	100 to 1000 nM	100 to 1000 nM	100 to 1000 nM	100 to 1000 nM	100 to 1000 nM	10 to 100 nM	–	100 to 1000 nM
CCn1c(-c2cccnc2[C@H](C)OC)c2c3cc(ccc31)-c1cc(O)cc(c1)C[C@H](NC(=O)[C@H](C(C)C)N(C)C(=O)C1CC3(CCOCC3)CO1)C(=O)N1CCC[C@H](N1)C(=O)OCC(C)(C)C2 (some centres unmarked) [Compound A413]	< 5000 nM	100 to 1000 nM	10 to 100 nM	10 to 100 nM	100 to 1000 nM	100 to 1000 nM	100 to 1000 nM	10 to 100 nM	100 to 1000 nM	10 to 100 nM	–	100 to 1000 nM
CCn1c(-c2cccnc2[C@H](C)OC)c2c3cc(ccc31)-c1cc(O)cc(c1)C[C@H](NC(=O)[C@H](C(C)C)N(C)C(=O)[C@H]1CC[C@@H](C(N)=O)O1)C(=O)N1CCC[C@H](N1)C(=O)OCC(C)(C)C2 [Compound A414]	< 5000 nM	100 to 1000 nM	10 to 100 nM	10 to 100 nM	10 to 100 nM	100 to 1000 nM	100 to 1000 nM	10 to 100 nM	100 to 1000 nM	100 to 1000 nM	–	1000 to 10000 nM
CCn1c(-c2cccnc2[C@H](C)OC)c2c3cc(ccc31)-c1cc(O)cc(c1)C[C@H](NC(=O)[C@H](C(C)C)N(C)C(=O)C1(C(F)F)CCCO1)C(=O)N1CCC[C@H](N1)C(=O)OCC(C)(C)C2 (some centres unmarked) [Compound A416]	< 5000 nM	100 to 1000 nM	100 to 1000 nM	100 to 1000 nM	100 to 1000 nM	100 to 1000 nM	100 to 1000 nM	100 to 1000 nM	100 to 1000 nM	100 to 1000 nM	–	100 to 1000 nM
CCn1c(-c2cccnc2[C@H](C)OC)c2c3cc(ccc31)-c1cc(O)cc(c1)C[C@H](NC(=O)[C@H](C(C)C)N(C)C(=O)[C@@H]1COC[C@@H]1N)C(=O)N1CCC[C@H](N1)C(=O)OCC(C)(C)C2 [Compound A418]	< 5000 nM	100 to 1000 nM	10 to 100 nM	10 to 100 nM	10 to 100 nM	100 to 1000 nM	100 to 1000 nM	10 to 100 nM	100 to 1000 nM	10 to 100 nM	–	1000 to 10000 nM
CCn1c(-c2cccnc2[C@H](C)OC)c2c3cc(ccc31)-c1cc(O)cc(c1)C[C@H](NC(=O)[C@H](C(C)C)N(C)C(=O)[C@H]1[C@@H](N)[C@@H]3CC[C@H]1O3)C(=O)N1CCC[C@H](N1)C(=O)OCC(C)(C)C2 [Compound A421]	< 5000 nM	100 to 1000 nM	10 to 100 nM	100 to 1000 nM	100 to 1000 nM	100 to 1000 nM	1000 to 10000 nM	100 to 1000 nM	100 to 1000 nM	100 to 1000 nM	–	1000 to 10000 nM
